Data published in patent US6960594B2, “Thiophene and furan 2,5-dicarboxamides useful in the treatment of cancer” (Shire BioChem Inc., priority 1998, dated 2005).

Columns and labels:
[1] = biological target: T1, α5β1 (Homo sapiens, UniProt P05556+P08648); assay: Cell adhesion assay, K562 on fibronectin; assay type: cell-based; conditions: K562 cells, adhesion to fibronectin, 1 hour
T1 construct: Cells HT29, K562, or K562 transfected with αvβ3; endogenous in cells; host or cells: K562
Experimental: (§1) The wells of 96-well plates (Immunolon) were coated, by incubation overnight at 4° C., with 5 ug/mL vitronectin, 2 ug/mL osteopontin, or fibronectin or 10 mg/mL BSA in PBS. The protein solution was flicked out and the wells were blocked with 10 mg/mL BSA (0.1 mL) for 1-2 hours at 37° C. Cells HT29, K562, or K562 transfected with αvβ3 (Blystone et al., 1994) were loaded with a fluorescent marker, 5-chloromethylfluorescein diacetate (Molecular Probes, Eugene, Oreg.) for 1 hour at 37° C., then incubated in fresh medium without the fluorescent marker for 1 hour. Cells were lifted with trypsin-EDTA and washed two times with Hank's balanced salt solution minus cations (Sigma) supplemented with 1 mM MgCl2 Cells (75,000 cells/well) were added to coated plates in triplicate and allowed to attach at 37° C. for 1 hour in the presence or absence of specific antibodies (5 ug/mL) or 10-fold dilutions of compounds of interest starting at 10 uM. Nonadherent cells were removed by gentle washing twice with PBS. The adherent cells were solubilized with 1% triton x-100 and detected using a fluorescence plate reader (DYNEX Technologies). The number of attached cells was calculated based upon standard curves for each cell line used in the experiment. Non-specific cell attachment (attachment to wells coated with BSA) was always less than 5%.

[2] = test system: Chick chorioallantoic membrane (CAM) capillary formation driven by VPF/VEGF165; assay: Chick chorioallantoic membrane (CAM) mesh assay; assay type: in vivo, chicken; conditions: significant if >25%
Experimental: Fertilized white leghorn chicken eggs (SPAFAS Inc., Norwich, Conn.) were received at day 0 and incubated for 3 days at 37 C with constant humidity. On day 3, eggs were rinsed with 70% ethanol and opened into 100 mm^2 tissue culture coated Petri dishes under aseptic conditions. The embryos were then returned to a humidified 38 C incubator for 7-9 additional days.
Vitrogen (Collagen Biomaterials, Palo Alto, Calif.) at a final concentration of 0.73 mg/mL and Matrigel (Becton Dickinson, Bedford, Mass.) at a final concentration of 10 mg/mL was directly pipetted onto Nylon meshes with 250 μm^2 openings which were cut into 4 mm×4 mm squares and autoclaved. Polymerization of meshes were under aseptic conditions, on bacteriological Petri dishes. The polymerization conditions for each substrate were identical; after mixing with or without 250 μg of VPF/VEGF165 (Peprotech, Rocky Hill, N.J.) and/or compounds of interest, 40 μL were pipetted onto each mesh in a bacteriological Petri dish. The Petri dish was placed in a humidified 37 C incubator with 5% CO2 for 30 minutes to allow polymerization followed by an incubation at 4° C. for 2 hours.
In a tissue culture enclosure, meshes were placed onto the periphery of the CAM of a day 12-14 embryo, excluding areas containing major vessels. The embryos were then returned to the humidified 38° C. incubator with 3% CO2 for 24 to 48 additional hours.
Embryos were removed from the incubator and meshes were viewed under a dissecting microscope for gross evaluation. Injection of 400 μL FITC dextran, MW 2,000,000 (Sigma, St. Louis, Mo.) through glass microcapillary tubes by infusion into the umbilical vein was performed at a rate of 200 μl per minute. The FITC dextran was allowed to circulate for 5 minutes and 3.7% formaldehyde in PBS was applied directly on each mesh. The embryos were then incubated at 40° C. for 5 minutes and the meshes were dissected off the CAM and fixed in 3.7% formaldehyde for 10 minutes to overnight.
After fixation, meshes were mounted on slides with 90% glycerol in PBS and visualized on an inverted fluorescence microscope. A Nikon Diaphot with a Sony DXC-151A camera attached to the side port was used for capture of images and analysis was with the NIH Image 1.61 software program. For each mesh, 5 random staggered images (approximately 600 μm each) were captured. The areas of high intensity were highlighted and measured. Results are expressed as ability to suppress capillary formation after subtraction from negative control. Values were calculated as a inhibition, considering 100% the capillary density achieved by VPF in the presence of vitrogen alone minus the bakground levels in the absence of VPF. Negative values indicated angiogenic stimulation above the VPF positive control.

[3] = biological target: T2, αvβ5 (Homo sapiens, UniProt P06756+P18084); assay: Cell adhesion assay, HT29 on vitronectin; assay type: cell-based
T2 construct: Cells HT29, K562, or K562 transfected with αvβ3; endogenous in cells; host or cells: HT29
T2 sequence (P06756 31-889 limits assumed): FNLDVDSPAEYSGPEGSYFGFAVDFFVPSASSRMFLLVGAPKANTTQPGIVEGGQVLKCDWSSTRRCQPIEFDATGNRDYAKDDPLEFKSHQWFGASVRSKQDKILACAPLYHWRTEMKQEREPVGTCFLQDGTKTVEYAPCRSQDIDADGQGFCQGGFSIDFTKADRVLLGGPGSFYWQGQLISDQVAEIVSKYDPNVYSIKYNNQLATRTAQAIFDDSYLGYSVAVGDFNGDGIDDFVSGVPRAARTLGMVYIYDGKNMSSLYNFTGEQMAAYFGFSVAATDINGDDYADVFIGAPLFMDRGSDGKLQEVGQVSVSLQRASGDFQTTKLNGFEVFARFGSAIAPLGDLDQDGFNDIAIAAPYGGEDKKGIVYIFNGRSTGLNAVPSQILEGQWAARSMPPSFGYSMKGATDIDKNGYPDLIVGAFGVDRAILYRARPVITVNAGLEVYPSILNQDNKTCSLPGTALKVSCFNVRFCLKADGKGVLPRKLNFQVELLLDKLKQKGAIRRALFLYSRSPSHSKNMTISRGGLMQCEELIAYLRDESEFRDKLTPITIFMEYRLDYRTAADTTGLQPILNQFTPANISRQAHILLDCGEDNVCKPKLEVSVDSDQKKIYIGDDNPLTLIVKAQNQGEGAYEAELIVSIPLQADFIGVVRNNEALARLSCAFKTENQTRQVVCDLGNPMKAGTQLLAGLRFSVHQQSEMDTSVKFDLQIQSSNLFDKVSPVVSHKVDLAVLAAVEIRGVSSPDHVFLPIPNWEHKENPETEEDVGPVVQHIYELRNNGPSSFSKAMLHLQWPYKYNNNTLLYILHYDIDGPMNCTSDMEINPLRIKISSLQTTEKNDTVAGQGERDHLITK
T2 sequence (P06756 891-1048 partner limits assumed): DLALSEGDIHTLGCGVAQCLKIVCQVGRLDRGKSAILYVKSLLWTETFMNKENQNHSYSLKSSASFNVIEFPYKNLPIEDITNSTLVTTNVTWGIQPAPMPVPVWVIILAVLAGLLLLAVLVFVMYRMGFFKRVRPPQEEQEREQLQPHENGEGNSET
T2 sequence (P18084 24-799): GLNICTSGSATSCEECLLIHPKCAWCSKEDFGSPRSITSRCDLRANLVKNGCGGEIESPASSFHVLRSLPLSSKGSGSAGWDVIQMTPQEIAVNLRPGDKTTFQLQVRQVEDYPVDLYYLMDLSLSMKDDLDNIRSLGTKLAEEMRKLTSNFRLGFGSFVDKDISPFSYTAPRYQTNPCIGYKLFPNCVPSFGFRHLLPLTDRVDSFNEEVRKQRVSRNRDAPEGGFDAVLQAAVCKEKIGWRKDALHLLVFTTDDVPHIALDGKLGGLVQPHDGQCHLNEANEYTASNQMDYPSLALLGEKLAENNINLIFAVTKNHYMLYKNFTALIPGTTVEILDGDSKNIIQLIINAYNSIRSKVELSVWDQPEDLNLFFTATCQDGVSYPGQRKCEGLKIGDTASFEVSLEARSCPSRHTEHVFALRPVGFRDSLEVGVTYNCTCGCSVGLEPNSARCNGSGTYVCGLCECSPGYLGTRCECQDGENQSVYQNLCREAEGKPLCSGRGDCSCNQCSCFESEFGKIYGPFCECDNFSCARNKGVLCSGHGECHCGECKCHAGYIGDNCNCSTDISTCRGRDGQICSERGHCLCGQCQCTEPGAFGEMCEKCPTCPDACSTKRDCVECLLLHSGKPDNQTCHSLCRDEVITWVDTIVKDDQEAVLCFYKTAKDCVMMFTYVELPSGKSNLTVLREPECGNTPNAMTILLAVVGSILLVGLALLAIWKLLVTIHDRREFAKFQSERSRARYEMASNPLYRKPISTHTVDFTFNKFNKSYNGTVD
Experimental: as §1, with “Cells HT29, K562, or K562 transfected with αvβ3 (Blystone et al., 1994) were loaded with a fluorescent marker, 5-chloromethylfluorescein diacetate (Molecular Probes, Eugene, Oreg.) for 1 hour at 37° C., then incubated in fresh medium without the fluorescent marker for 1 hour.” left out, “experiment.” for “experiment. Non-specific cell attachment (attachment to wells coated with BSA) was always less than 5%.”

T1 sequence (P08648 42-894 limits assumed): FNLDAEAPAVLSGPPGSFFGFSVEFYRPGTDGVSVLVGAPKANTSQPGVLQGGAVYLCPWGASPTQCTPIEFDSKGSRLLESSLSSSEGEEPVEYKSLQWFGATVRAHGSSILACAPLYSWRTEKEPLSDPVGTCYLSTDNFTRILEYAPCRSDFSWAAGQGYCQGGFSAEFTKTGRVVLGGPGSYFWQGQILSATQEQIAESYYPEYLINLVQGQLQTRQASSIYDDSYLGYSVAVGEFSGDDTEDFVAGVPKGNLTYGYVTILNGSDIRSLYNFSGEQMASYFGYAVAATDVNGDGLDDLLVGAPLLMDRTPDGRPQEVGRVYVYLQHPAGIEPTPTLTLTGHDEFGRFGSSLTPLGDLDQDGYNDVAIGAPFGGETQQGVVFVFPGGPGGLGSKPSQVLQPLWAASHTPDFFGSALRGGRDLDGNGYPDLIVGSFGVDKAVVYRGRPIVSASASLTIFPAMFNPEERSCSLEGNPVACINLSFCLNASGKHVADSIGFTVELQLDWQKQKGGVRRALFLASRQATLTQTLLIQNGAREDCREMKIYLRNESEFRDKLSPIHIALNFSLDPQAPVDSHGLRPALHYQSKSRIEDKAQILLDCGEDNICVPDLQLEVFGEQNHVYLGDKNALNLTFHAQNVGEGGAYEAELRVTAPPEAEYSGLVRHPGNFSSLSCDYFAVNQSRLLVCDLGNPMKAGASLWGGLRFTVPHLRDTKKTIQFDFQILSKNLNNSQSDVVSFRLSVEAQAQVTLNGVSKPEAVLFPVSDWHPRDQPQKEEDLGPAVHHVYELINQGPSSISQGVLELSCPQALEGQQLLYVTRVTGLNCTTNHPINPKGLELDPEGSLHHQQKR
T1 sequence (P08648 895-1049 partner limits assumed): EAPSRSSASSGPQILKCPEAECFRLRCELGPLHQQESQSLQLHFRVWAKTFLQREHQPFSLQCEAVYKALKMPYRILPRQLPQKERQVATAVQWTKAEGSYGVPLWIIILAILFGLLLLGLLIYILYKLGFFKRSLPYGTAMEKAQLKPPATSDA
T1 sequence (P05556 21-798): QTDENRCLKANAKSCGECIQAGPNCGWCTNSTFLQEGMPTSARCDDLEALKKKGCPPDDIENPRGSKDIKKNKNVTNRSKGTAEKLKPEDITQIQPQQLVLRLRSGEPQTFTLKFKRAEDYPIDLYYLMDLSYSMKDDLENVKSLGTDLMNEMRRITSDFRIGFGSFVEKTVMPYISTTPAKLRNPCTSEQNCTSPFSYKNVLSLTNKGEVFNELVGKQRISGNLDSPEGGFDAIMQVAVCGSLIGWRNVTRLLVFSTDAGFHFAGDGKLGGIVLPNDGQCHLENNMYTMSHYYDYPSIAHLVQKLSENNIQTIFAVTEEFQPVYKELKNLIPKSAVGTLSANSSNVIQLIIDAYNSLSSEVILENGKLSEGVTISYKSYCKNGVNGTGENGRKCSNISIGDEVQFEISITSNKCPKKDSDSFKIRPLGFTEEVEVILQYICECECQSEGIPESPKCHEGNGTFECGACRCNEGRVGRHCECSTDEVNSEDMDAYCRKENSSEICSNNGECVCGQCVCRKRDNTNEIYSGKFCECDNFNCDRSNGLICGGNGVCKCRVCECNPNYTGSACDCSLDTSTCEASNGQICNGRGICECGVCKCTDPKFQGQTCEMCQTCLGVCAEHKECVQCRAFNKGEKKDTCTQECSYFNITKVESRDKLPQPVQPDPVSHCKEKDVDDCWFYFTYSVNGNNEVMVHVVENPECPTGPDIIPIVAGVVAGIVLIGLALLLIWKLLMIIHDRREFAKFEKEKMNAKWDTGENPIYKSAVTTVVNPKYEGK

NCCCNC(=O)c1ccc(C(=O)NC(CC(=O)O)c2ccccc2)s1.O=C(O)C(F)(F)F (stereo not drawn) [Compound VII, 3-{[5-(3-Amino-propylcarbamoyl)-thiophene-2-carbonyl]-amino}-3-phenyl-propionic acid trifluoroacetic acid salt]
IC50 [1]: > 10 µM
% of inhibition at 33 μg/mesh in the presence of VEGF [2]: 34%
IC50 [3]: > 10 µM
